According to patent US5948796A, “Benzo[B]thiophene compounds, intermediates, formulations, and methods” (Eli Lilly and Company, priority 1997, dated 1999):
Structures can show the parent of a compound that is named as a salt. One block for each molecule: values may come before it.

Tests used:
[1] = tested on: ovariectomized (OVX) female Sprague Dawley rats, uterus; assay: Uterine weight in ovariectomized rats (post-menopausal model); assay type: in vivo; conditions: daily for 4 days, * p < 0.05
Experimental: (§1) In the examples illustrating the methods, a post-menopausal model was used in which effects of different treatments upon circulating lipids were determined.
(§2) Seventy-five day old female Sprague Dawley rats (weight range of 200 to 225 g) are obtained from Charles River Laboratories (Portage, Mich.). The animals are either bilaterally ovariectomized (OVX) or exposed to a Sham surgical procedure at Charles River Laboratories, and then shipped after one week. Upon arrival, they are housed in metal hanging cages in groups of 3 or 4 per cage and have ad libitum access to food (calcium content approximately 0.5%) and water for one week. Room temperature is maintained at 22.2°±1.7° C. with a minimum relative humidity of 40%. The photoperiod in the room is 12 hours light and 12 hours dark.
(§3) Dosing Regimen Tissue Collection. After a one week acclimation period (therefore, two weeks post-OVX) daily dosing with test compound is initiated. 17α-ethynyl estradiol or the test compound are given orally, unless otherwise stated, as a suspension in 1% carboxymethylcellulose or dissolved in 20% cyclodextrin. Animals are dosed daily for 4 days. Following the dosing regimen, animals are weighed and anesthetized with a ketamine: Xylazine (2:1, V:V) mixture and a blood sample is collected by cardiac puncture. The animals are then sacrificed by asphyxiation with CO2, the uterus is removed through a midline incision, and a wet uterine weight is determined.
(§4) In accordance with the above procedures, compounds of the present invention and ethynyl estradiol (EE2) in 20% hydroxypropyl β-cyclodextrin are orally administered to test animals.

Eosinophil peroxidase = assay: Uterine Eosinophil Peroxidase (EPO) Assay in ovariectomized rats; assay type: in vivo, female Sprague Dawley rats; conditions: daily for 4 days, OVX rats, * p < 0.05
Experimental: as §1, §2, §3
Uterine Eosinophil Peroxidase (EPO) Assay. Uteri are kept at 4° C. until time of enzymatic analysis. The uteri are then homogenized in 50 volumes of 50 mM Tris buffer (pH-8.0) containing 0.005% Triton X-100. Upon addition of 0.01% hydrogen peroxide and 10 mM O-phenylenediamine (final concentrations) in Tris buffer, increase in absorbance is monitored for one minute at 450 nm. The presence of eosonophils in the uterus is an indication of estrogenic activity of a compound. The maximal velocity of a 15 second interval is determined over the initial, linear portion of the reaction curve.
as §4

[2] = tested on: MCF-7 breast adenocarcinoma cells; assay: MCF-7 Proliferation Assay; assay type: cell-based; conditions: Homo sapiens, MCF7; MCF-7 cells; 48 hours; tritiated thymidine pulse 4 hours
Experimental: As evidence of the current invention treat estrogen dependent cancer, the following assay was performed.
MCF-7 Proliferation Assay
MCF-7 breast adenocarcinoma cells (ATCC HTB 22) were maintained in MEM (minimal essential medium, phenol red-free, Sigma, St. Louis, Mo.) supplemented with 10% fetal bovine serum (FBS) (V/V), L-glutamine (2 mM), sodium pyruvate (1 mM), HEPES {(N-[2-hydroxyethyl]piperazine-N'-[2-ethanesulfonic acid]10 mM}, non-essential amino acids and bovine insulin (1 ug/mL) (maintenance medium). Ten days prior to assay, MCF-7 cells were switched to maintenance medium supplemented with 10% dextran coated charcoal stripped fetal bovine serum (DCC-FBS) assay medium) in place of 10% FBS to deplete internal stores of steroids. MCF-7 cells were removed from maintenance flasks using cell dissociation medium [Ca++/Mg++ free HBSS (phenol red-free) supplemented with 10 mM HEPES and 2 mM EDTA]. Cells were washed twice with assay medium and adjusted to 80,000 cells/mL. Approximately […] (8,000 cells) were added to flat-bottom microculture wells (Costar 3596) and incubated at 37° C. in a 5% CO2 humidified incubator for 48 hours to allow for cell adherence and equilibration after transfer. […] Samples were counted by liquid scintillation using a Wallac BetaPlace β counter. […]

serum cholesterol = assay: Cholesterol Analysis (serum cholesterol in ovariectomized rats); assay type: in vivo, female Sprague Dawley rats; conditions: daily for 4 days, OVX rats, * p < 0.05
Experimental: as §1, §2, §3
Cholesterol Analysis. Blood samples are allowed to clot at ambient temperature for 2 hours, and serum is obtained following centrifugation for 10 minutes at 3000 rpm. Serum cholesterol is determined using a Boehringer Mannheim Diagnostics high performance cholesterol assay. Briefly, the cholesterol is oxidized to cholest-4-en-3-one and hydrogen peroxide. The hydrogen peroxide is then reacted with phenol and 4-aminophenazone in the presence of peroxidase to produce a p-quinone imine dye, which is read spectrophotemetrically at 500 nm. Cholesterol concentration is then calculated against a standard curve.
as §4

SMILES: C#C[C@]1(O)CC[C@H]2[C@@H]3CCc4cc(O)ccc4[C@H]3CC[C@@]21C [EE2, 17α-ethynyl estradiol, reference compound]
- Uterine Wt. (% Inc.), % increase versus the ovariectomized controls ([1]; dose printed "0." mg/kg PO): 171.2%
- Uterine EPO (Vmax) (Eosinophil peroxidase; dose printed "0." mg/kg PO): 142.4

- IC50 [2]: 500 nM
SMILES: COc1ccc(-c2sc3cc(C)ccc3c2C(=O)c2ccc(OCCN3CCCCC3)cc2)cc1 [Example 1, [2-(4-Methoxyphenyl)-6-methylbenzo[b]thien-3-yl}[4-[2-(1-piperdinyl)ethoxy]phenyl]methanone Hydrochloride]
- Serum Cholesterol (% Dec.), decrease versus ovariectomized controls (serum cholesterol; 0.1 mg/kg PO): -20.3%
- Serum Cholesterol (% Dec.), decrease versus ovariectomized controls (serum cholesterol; 1 mg/kg PO): 17.2%
- Serum Cholesterol (% Dec.), decrease versus ovariectomized controls (serum cholesterol; 10 mg/kg PO): 34.8%
- Uterine Wt. (% Inc.), % increase versus the ovariectomized controls ([1]; 0.1 mg/kg PO): -11.4%
- Uterine Wt. (% Inc.), % increase versus the ovariectomized controls ([1]; 1 mg/kg PO): -4.6%
- Uterine Wt. (% Inc.), % increase versus the ovariectomized controls ([1]; 10 mg/kg PO): 2.1%
- Uterine EPO (Vmax) (Eosinophil peroxidase; 0.1 mg/kg PO): 1.4
- Uterine EPO (Vmax) (Eosinophil peroxidase; 1 mg/kg PO): 1.6
- Uterine EPO (Vmax) (Eosinophil peroxidase; 10 mg/kg PO): 5.2

- IC50 [2]: 100 nM
SMILES: Cc1ccc2c(C(=O)c3ccc(OCCN4CCCCC4)cc3)c(-c3ccc(O)cc3)sc2c1 [Example 2, [2-(4-Hydroxyphenyl)-6-methylbenzo[b]thien-3-yl}[4-[2-(1-piperdinyl)ethoxy]phenyl]methanone Hydrochloride]
- Serum Cholesterol (% Dec.), decrease versus ovariectomized controls (serum cholesterol; 0.1 mg/kg PO): 16.9%
- Serum Cholesterol (% Dec.), decrease versus ovariectomized controls (serum cholesterol; 1 mg/kg PO): 33.8%
- Serum Cholesterol (% Dec.), decrease versus ovariectomized controls (serum cholesterol; 10 mg/kg PO): 21.6%
- Uterine Wt. (% Inc.), % increase versus the ovariectomized controls ([1]; 0.1 mg/kg PO): -9.0%
- Uterine Wt. (% Inc.), % increase versus the ovariectomized controls ([1]; 1 mg/kg PO): 23.9%
- Uterine Wt. (% Inc.), % increase versus the ovariectomized controls ([1]; 10 mg/kg PO): 29.0%
- Uterine EPO (Vmax) (Eosinophil peroxidase; 0.1 mg/kg PO): 2.0
- Uterine EPO (Vmax) (Eosinophil peroxidase; 1 mg/kg PO): 2.8
- Uterine EPO (Vmax) (Eosinophil peroxidase; 10 mg/kg PO): 2.9
